Measured values published in PMC6382862 (Scientific Reports, 2019).
Several values for one entry are separate records, joined by “and”; a condition that tells them apart may be missing. Equal entries are not always repeated.

Experiments:
[1] = target: T1, PCSK9/LDLR PPI (His-tagged PCSK9, recombinant LDLR-AB domain) (Homo sapiens, UniProt Q8NBP7); assay: In vitro PCSK9-LDLR binding assay (CycLex); conditions: peptide 100 µM; absorbance 450 nm; three independent experiments in duplicate
T1 construct: purchased CycLex Co., Nagano, Japan
T1 sequence (Q8NBP7 153-692): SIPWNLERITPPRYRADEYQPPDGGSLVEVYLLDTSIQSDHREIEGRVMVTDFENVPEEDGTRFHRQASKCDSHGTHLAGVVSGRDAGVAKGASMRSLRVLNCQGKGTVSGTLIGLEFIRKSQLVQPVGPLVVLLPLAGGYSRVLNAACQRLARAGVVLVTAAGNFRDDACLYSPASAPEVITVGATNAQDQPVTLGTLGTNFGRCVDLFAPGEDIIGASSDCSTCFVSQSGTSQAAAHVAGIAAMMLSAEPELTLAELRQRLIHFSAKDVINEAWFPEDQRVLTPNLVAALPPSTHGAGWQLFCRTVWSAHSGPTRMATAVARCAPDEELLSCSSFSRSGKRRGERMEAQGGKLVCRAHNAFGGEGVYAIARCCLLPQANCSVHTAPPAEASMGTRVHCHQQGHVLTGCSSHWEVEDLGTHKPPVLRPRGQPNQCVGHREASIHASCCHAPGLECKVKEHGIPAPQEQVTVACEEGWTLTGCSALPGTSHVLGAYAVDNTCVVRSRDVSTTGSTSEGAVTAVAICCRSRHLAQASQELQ
T1 sequence (Q8NBP7 31-152 partner limits assumed): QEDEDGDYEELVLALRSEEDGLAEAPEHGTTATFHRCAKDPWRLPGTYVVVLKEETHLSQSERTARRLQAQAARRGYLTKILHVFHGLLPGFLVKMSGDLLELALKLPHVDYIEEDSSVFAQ
Experimental: Biochemical experiments, based on a PCSK9-LDLR binding assay, were performed in order to compare the ability of each derivative to impair the PPI between PCSK9 and LDLR. […] Initially, in agreement with recently published conditions[27], a preliminary screening was performed at the fixed concentration of 100 µM.
The absorbance at 450 nm was measured using the Synergy H1 fluorescent plate reader (Biotek, Bad Friedrichshall, Germany).

[2] = system: LDLR protein level on HepG2 cell surface; assay: In cell western (ICW) assay of LDLR protein level on HepG2 cell surface in presence of PCSK9; format: cell-based, human; conditions: PCSK9 alone decreased LDLR by 37.62%, mean of three independent experiments
Experimental: This reliable technique was used to investigate the effects of the mutated peptides on the modulation of the LDLR protein levels localized on the HepG2 cell surface. Taking this into consideration, to evaluate only the LDLR surface levels no permeabilization step was included in the applied procedure.
(§1) The HepG2 cell line was cultured in DMEM high glucose with stable L-glutamine supplemented with 10% FBS, 100 U/mL penicillin, 100.0 µg/mL streptomycin and incubated at 37 °C under 5% CO2 atmosphere. HepG2 cells were used for no more than 20 passages after thawing, because the increase of the number of passages may change the cell characteristics and impair assay results.
A total of 3.0 × 10^4 HepG2 cells/well were seeded in 96-well plates, respectively. The following day, cells were washed with PBS and then starved overnight (O/N) in DMEM without FBS.
Treated HepG2 cells were fixed in 4% paraformaldehyde for 20 min at room temperature (RT). Cells were washed 5 times with 100.0 µL of PBS/well (each wash was for 5 min at RT) and the endogenous peroxides activity was quenched adding 3% H2O2 in PBS for 20 min at RT. Non-specific sites were blocked with 100.0 µL/well of 5% BSA in PBS for 1.5 h at RT. LDLR primary antibody solution (1:3000 in 5% BSA in PBS, 25 µL/well) was incubated O/N at 4 °C. Subsequently, the primary antibody solution was discarded and each sample was washed 5 times with 100.0 µL/well of PBS (each wash was for 5 min at RT). Goat anti-rabbit Ig-HRP secondary antibody solution (1:6000 in 5% BSA in PBS, 50.0 µL/well) was added and incubated for 1 h at RT. The secondary antibody solution was washed 5 times with 100.0 µL/well of PBS (each wash for 5 min at RT). Freshly prepared TMB substrate (100.0 µL/well), was added and the plate was incubated at room temperature (RT) until desired color was developed. The reaction was then stopped with 2 M H2SO4 and the absorbance at 450 nm was measured using the Synergy H1 fluorescent plate reader from Biotek. Cells were stained by adding 1 × Janus green stain, incubating for 5 min at RT. The dye was removed and the sample washed 5 times with water. Afterward 0.1 mL 0.5 M HCl per well were added and incubated for 10 min. After 10 sec shaking, the OD at 595 nm was measured using the Synergy H1 fluorescent plate reader from Biotek.

[3] = system: HepG2 cells; assay: Fluorescent LDL uptake cell based assay in PCSK9-treated HepG2 cells; design: species or system human; conditions: for Times more active than Pep2-8 in restoring LDL uptake: compared with 50 µM Pep2-8; for LDL-uptake restored (versus untreated cells): then LDL-DyLight 550 2 h, PCSK9 alone reduced uptake by 32.7%, mean of three independent experiments
Experimental: as §1
HepG2 cells (3.0 × 10^4/well) were seeded in black 96-well plates and kept in complete growth medium for 2 d before treatment. The third day, they were treated with 4.0 μg/mL PCSK9 and 4.0 μg/mL PCSK9 + peptides (0.5-50.0 µM), and vehicle (H2O) for 2 h with at 37 °C under 5% CO2 atmosphere. At the end of the treatments, the culture medium was replaced with 50.0 μl/well LDL-DyLight™ 550 working solution (Cayman Chemical Company, Ann Arbor, MI, US). The cells were additionally incubated for 2 h at 37 °C and then the culture medium was aspirated and replaced with PBS (100.0 μl/well). The degree of LDL uptake was measured using the Synergy H1 fluorescent plate reader from Biotek (excitation and emission wavelengths 540 and 570 nm, respectively).

[4] = system: cell surface LDLR, HepG2 cells; conditions: cited from earlier work
Experimental: It is useful to underline, that in our case the cells were treated with a lower PCSK9 concentration (4 μg/mL) and for a shorter time (2 h) in respect to the conditions applied by Zhang and co-w ... || In a recent study, Zhang and co-workers[18] have developed new antagonists. […] In particular, in presence of PCSK9, Fusion 1 peptid ...

[5] = system: PCSK9/LDLR PPI; conditions: read-out: IC50 of PCSK9/LDLR PPI inhibition; cited from earlier work
Excerpt: Recently, innovative technological solutions for controlling peptide metabolism and advanced administration strategies[14]–[16] have renewed the interest for novel inhibitory peptides. […] Another study, carried out by us, has identified two peptides able to inhibit the PCSK9/LDLR PPI[11]: they derive from the hydrolysis of lupin protein and have the following sequences, […] (P5) and […] (T9).

[6] = system: PCSK9; design: method as in PMID 28825733; conditions: lower affinity than Pep2-8, still detectable by SPR; cited from earlier work
[7] = target: T2, recombinant His-tagged PCSK9 protein (proprotein convertase subtilisin/kexin type 9) (UniProt Q8NBP7 31-692); assay: ELISA; CycLex in vitro PCSK9-LDLR binding assay (colorimetric semi-quantitative solid phase binding assay); wells coated with recombinant LDLR-AB domain; His-tagged PCSK9 added with peptide (1.0-300.0 uM; first screen at 100 uM); bound His-tagged PCSK9 read as absorbance at 450 nm; competition; conditions: both partners purified
T2 construct: Proprotein convertase subtilisin/kexin type 9 (PCSK9), recombinant, of the CycLex kit; the functional rows use this molecule; also called PCSK9-WT
T2 sequence (Q8NBP7 31-692): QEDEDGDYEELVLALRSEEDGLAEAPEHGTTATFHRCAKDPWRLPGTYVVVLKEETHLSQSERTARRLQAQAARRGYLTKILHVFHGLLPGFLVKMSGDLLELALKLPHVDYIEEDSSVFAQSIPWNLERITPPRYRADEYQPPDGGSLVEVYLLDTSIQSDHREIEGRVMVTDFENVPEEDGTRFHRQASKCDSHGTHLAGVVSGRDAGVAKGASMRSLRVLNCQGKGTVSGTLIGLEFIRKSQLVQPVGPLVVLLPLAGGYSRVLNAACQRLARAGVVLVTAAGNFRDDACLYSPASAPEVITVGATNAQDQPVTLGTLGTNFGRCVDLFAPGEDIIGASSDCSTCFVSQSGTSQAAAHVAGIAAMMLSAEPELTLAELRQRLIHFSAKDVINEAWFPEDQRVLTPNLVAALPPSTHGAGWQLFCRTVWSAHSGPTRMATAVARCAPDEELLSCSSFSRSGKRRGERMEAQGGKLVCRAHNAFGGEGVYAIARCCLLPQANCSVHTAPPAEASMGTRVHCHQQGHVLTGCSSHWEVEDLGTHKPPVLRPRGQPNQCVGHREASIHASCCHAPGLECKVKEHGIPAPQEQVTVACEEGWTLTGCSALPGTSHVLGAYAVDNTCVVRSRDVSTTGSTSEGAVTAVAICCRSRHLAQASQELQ

[8] = peptide 0.5 µM + 4 µg/mL PCSK9, 2 h
[9] = peptide 1 µM + 4 µg/mL PCSK9, 2 h
[10] = peptide 0.5 µM + 4.0 µg/mL PCSK9, 2 h
[11] = peptide 1.0 µM + 4.0 µg/mL PCSK9, 2 h

## Ac-TVFTSWEEALDWV-NH2 [[Y9A]Pep2-8]
[1]
  Impairment of PCSK9-LDLR binding versus control: −69.8%
[2]; [8]
  LDLR protein level restored (versus control cells): 81.9%
[2]; [9]
  LDLR protein level restored (versus control cells): 89.9%
[3]
  Times more active than Pep2-8 in restoring LDL uptake: about 50 fold
[3]; [10]
  LDL-uptake restored (versus untreated cells): 83.4%
[3]; [11]
  LDL-uptake restored (versus untreated cells): 99.0%

## Ac-TVFTSWEEYLDWV-NH 2 [Pep2-8, reference compound]
[2]; peptide 50 µM + 4 µg/mL PCSK9, 2 h
  LDLR protein level restored (versus control cells): 83.36% and 83.4%
[3]; peptide 50 µM + 4.0 µg/mL PCSK9, 2 h
  LDL-uptake restored (versus untreated cells): 98.9%
[4]; FACS, 50 μM peptide, 4 h co-incubation with 15 μg/mL PCSK9, ref Zhang and co-workers
  Surface LDLR levels renewed: about 70%

## LILPKHSDAD [Peptide P5]
[5]
  IC50: 1.6 µM

## TVFTSWEEYLDWV-GSC- CRLPWNLQRIGLPG [Fusion 1 peptide]
[4]; HepG2 cells, 5.0 µM (tested 0.1 to 5.0 µM)
  LDLR restored in presence of PCSK9: 90%
[4]; HepG2 cells
  Fold more potent than reference peptide Pep2-8 in preventing PCSK9-mediated cell surface LDLR degradation: about 20 fold

## Ac-TAFTSWEEYLDWV-NH2 [[V2A]Pep2-8, alanine single-point mutant of Pep2-8, computational only]
[6]
  Affinity on PCSK9: low affinity

## Ac-TVFRSWEEYLDYV-NH2 [[T4R,W12Y]Pep2-8]
[1]
  Impairment of PCSK9-LDLR binding versus control: −93.0%
[2]; [8]
  LDLR protein level restored (versus control cells): 68.1%
[2]; [9]
  LDLR protein level restored (versus control cells): 75.3%
[2]; peptide 10.0 µM + 4 µg/mL PCSK9, 2 h
  LDLR protein level restored (versus control cells): 88.3%
[3]
  Times more active than Pep2-8 in restoring LDL uptake: ~5 fold
[3]; [10]
  LDL-uptake restored (versus untreated cells): 81.6%
[3]; [11]
  LDL-uptake restored (versus untreated cells): 88.0%
[3]; peptide 10.0 µM + 4.0 µg/mL PCSK9, 2 h
  LDL-uptake restored (versus untreated cells): 92.5%

B1: [Y9A]Pep2-8 (Ac-TVFTSWEEALDWV-NH2) (peptide)
peptide: Ac-TVFTSWEEALDWV-NH2
notes: analog of Pep2-8 with Y9A, designed by computation; source: synthetic peptide (bought: PRIMM Biotech / GenScript, >95% purity)
[7]
  IC50: 27.1 µM
  percent change of PCSK9-LDLR binding at 100 µM peptide versus the control: -69.8%

B2: [T4R,W12Y]Pep2-8 (Ac-TVFRSWEEYLDYV-NH2) (peptide)
peptide: Ac-TVFRSWEEYLDYV-NH2
notes: analog of Pep2-8 with T4R and W12Y, designed by computation; source: synthetic peptide (bought: PRIMM Biotech / GenScript, >95% purity)
[7]
  IC50: 14.5 µM
  percent change of PCSK9-LDLR binding at 100 µM peptide versus the control: -93%
